Test results taken from US10208007B2, “Use of strigolactones and strigolactone analogs for treating proliferative conditions” (The State of Israel, Ministry of Agriculture & Rural …, priority 2011, dated 2019).

Key:
[1] = system: U20S cells; experiment: Strigolactone analog induced gene expression changes; assay type: cell-based, human; conditions: 5 ppm
Method: To further elucidate the transcriptional program by which strigolactone analogs may affect growth and survival of cancer cells, U20S cells were treated with ST-362 or MEB-55 (5 ppm) for either 6 or 24 hours to permit early and late gene expression changes to be distinguished. U20S cells were selected based on their enhanced sensitivity to strigolactone treatment (see FIG. 7). […] Up-regulation of cytokines (CCL3L3, GDF15) and growth factors (PGF), and down-regulation of TGFBR11 was also noted. Apoptosis regulating genes were also identified, including DDIT3, BIRC3 and BAG3. DDIT3 encodes a member of the CCAAT/enhancer-binding protein (C/EBP) family of transcription factors and functions as a dominant-negative inhibitor by forming heterodimers with other C/EBP members and preventing their DNA binding activity. DDIT3 is induced by stress, including DNA damage and DDIT3 over-expression can induce cell cycle arrest. After 6 hours, MEB-55 treatment was associated with increased expression of p21cip (CDKN1A), Cyclin F (CCNF), Cyclin A2 (CCNA2) and decreased expression of CDK6, whereas ST-362 induced only a modest down-regulation of Cyclin B1 (CCNB1). Therefore, changes in the expression profile of cell cycle regulators, was not a global hallmark of strigolactone exposure. The only exception was Cyclin G2 (CCNG2) whose expression was elevated in both ST-362 and MEB-55 treatment groups. Cyclin G2 is an unconventional cyclin homolog which is linked to growth inhibition and whose expression is induced by DNA damaging chemotherapeutics.

[2] = system: MDA-MB-436; experiment: XTT viability assay; assay type: cell-based, human; conditions: MDA-MB-436, 3 days
Method: (§1) Viability was assayed after 3 days (XTT, ATCC). IC50 concentrations are indicated (Table 3 above).

[3] = system: A549; experiment: XTT viability assay; assay type: cell-based, human; conditions: A549, 3 days
Method: as §1

[4] = system: HCT116 cells; experiment: FACS analysis of phospho-Ser10 Histone-H3; assay type: cell-based, human; conditions: 2.7% in vehicle controls
Method: Adherent cells were trypsinyzed, washed twice with PBS and filtered through a […] cell sieve. DNA content was assessed by flow cytometry. Cells were seeded at densities of 1.5×10^5 cells (MDA-MB-231, MDA-MB-436), or 4×10^5 cells (MCF-7 and MCF10A), or 2×10^5 cells (SW480, HT-29), or 5×10^5 cells (HCT116), per well in DMEM with 10% FBS in 6-well plate culture dishes. […] After 48 hours, cells were washed twice with PBS (pH 7.4), centrifuged at 360 g for 10 minutes at 4° C., and fixed in chilled ethanol (70%; v/v in PBS) with gentle vortex mixing. To determine their DNA contents, the cells were stained with 40 μg/ml propidium iodide (hereinafter PI) and analyzed using a FACSCalibur flow cytometer and CellQuest analysis software (Becton Dickinson, San Jose, Calif.). Where phosphoHistone-H3 staining was carried out, cells were incubated with polyclonal antibody against phosphoHistone H3 and then with secondary Goat anti-rabbit IgG-conjugated to FITC prior to PI staining.
Chromosome condensation at mitosis is accompanied by phosphorylation of histone H3. Accordingly, in order to determine if cells were arresting at G2 or M phase, HCT116 cells were analyzed for pS10 Histone H3 following strigolactone analogs exposure. […] To further quantify whether the growth inhibition observed in-vitro following strigolactone treatment was due in part to apoptosis, HCT116 cells were dual stained with Annexin V and PI (Prodidium Iodide). Annexin V staining indicate the inversion of the inner leaflet of the plasma membrane an early event of apoptosis. Late apoptosis is characterized by loss of membrane integrity and cells become permeable to PI. […] Cells were incubated for 48 hours and then co-stained with annexin-V and PI (FIG. 12F). Following treatment with 10 ppm and 15 ppm MEB-55, the percentage of late apoptotic cell increased from 3.6% to 62% and 85% respectively (FIG. 12F, lower panel). […] Dual Annexin V/PI staining analysis was also carried out on two other colon cancer cell lines, (SW480, HT29) following strigolactone treatment. Increased apoptosis was also observed in these lines following MEB-55 treatment in a dose dependent manner (FIG. 12D).

[5] = system: HCT116 cells; experiment: XTT viability after timed exposure and strigolactone removal; conditions: Homo sapiens
Method: At each time point the strigolactone analog was removed and the media was replaced with fresh growth media without strigolactone analog. […] In addition, viability of MDA-MB-231 cells was assessed after 24 hours by using an XTT assay (FIG. 9B). […] After 2, 4 or 24 hours the media was removed, cells were washed and media was replaced with growth media minus strigolactone analog.

Structure (SMILES): CC1=CC(O/C=C2\Cc3c(n(C)c4cc(-c5cccs5)ccc34)C2=O)OC1=O (racemic) [MEB-55, (±) 2E-4-methyl-2-(4-methyl-5-oxo-2,5-dihydrofuran-2-yloxymethylene)-6-thiophen-2-yl-1,4-dihydro-2H-cyclopenta[b]indol-3-one]
- Fold-Change ABCB1 ([1]; 6 hours): 8.1 fold
- Fold-Change AHSA1 ([1]; 6 hours): 2.6 fold
- Fold-Change ALDH1B1 ([1]; 6 hours): −3.1 fold
- Fold-Change ATF3 ([1]; 6 hours): 4.0 fold
- Fold-Change BAG3 ([1]; 6 hours): 7.7 fold
- Fold-Change BIRC3 ([1]; 6 hours): −3.2 fold
- Fold-Change CCNG2 ([1]; 6 hours): 3.1 fold
- Fold-Change CLDN12 ([1]; 6 hours): 2.5 fold
- Fold-Change CYP24A1 ([1]; 6 hours): −3.6 fold
- Fold-Change DDIT3 ([1]; 6 hours): 14.1 fold
- Fold-Change FGF2 ([1]; 6 hours): 2.1 fold
- Fold-Change FOXD1 ([1]; 6 hours): −2.7 fold
- Fold-Change FOXO4 ([1]; 6 hours): 2.2 fold
- Fold-Change GDF15 ([1]; 6 hours): 19.0 fold
- Fold-Change GEM ([1]; 6 hours): 4.9 fold
- Fold-Change HSPA1A ([1]; 6 hours): 12.4 fold
- Fold-Change HSPA1B ([1]; 6 hours): 12.4 fold
- Fold-Change HSPA1L ([1]; 6 hours): 3.9 fold
- Fold-Change HSPA6 ([1]; 6 hours): 158.7 fold
- Fold-Change HSPA7 ([1]; 6 hours): 55.7 fold
- Fold-Change HSPB8 ([1]; 6 hours): 3.6 fold
- Fold-Change PGF ([1]; 6 hours): 7.0 fold
- Fold-Change PPP1R15A ([1]; 6 hours): 3.7 fold
- Fold-Change PTGS2 ([1]; 6 hours): 6.9 fold
- Fold-Change SLC3A2 ([1]; 6 hours): 3.4 fold
- Fold-Change SLC7A11 ([1]; 6 hours): 2.1 fold
- Fold-Change SLC44A2 ([1]; 6 hours): 2.1 fold
- Fold-Change TGFBR2 ([1]; 6 hours): −2.3 fold
- Fold-Change ABCA13 ([1]; 24 hours): −2.6 fold
- Fold-Change AMPH ([1]; 24 hours): −2.7 fold
- Fold-Change BIRC3 ([1]; 24 hours): 2.4 fold
- Fold-Change CCL20 ([1]; 24 hours): 11.9 fold
- Fold-Change CTGF ([1]; 24 hours): 2.1 fold
- Fold-Change CYR61 ([1]; 24 hours): 2.2 fold
- Fold-Change DHRS2 ([1]; 24 hours): −2.3 fold
- Fold-Change DUSP5 ([1]; 24 hours): 3.8 fold
- Fold-Change E2F2 ([1]; 24 hours): −2.2 fold
- Fold-Change EGR1 ([1]; 24 hours): 2.7 fold
- Fold-Change ESM1 ([1]; 24 hours): 21.2 fold
- Fold-Change GDF15 ([1]; 24 hours): 2.2 fold
- Fold-Change HSPA5 ([1]; 24 hours): −2.1 fold
- Fold-Change ITGA2 ([1]; 24 hours): 3.6 fold
- Fold-Change KIF20A ([1]; 24 hours): −2.4 fold
- Fold-Change LAMA1 ([1]; 24 hours): 2.1 fold
- Fold-Change RN7SK ([1]; 24 hours): 15.3 fold
- Fold-Change SCG5 ([1]; 24 hours): 4.9 fold
- Fold-Change SLC7A11 ([1]; 24 hours): 4.1 fold
- Fold-Change SNORD3A ([1]; 24 hours): 4.2 fold
- Fold-Change SNORD3C ([1]; 24 hours): 4.8 fold
- Fold-Change SNORD3D ([1]; 24 hours): 4.8 fold
- Fold-Change SPP1 ([1]; 24 hours): 6.6 fold
- Fold-Change TGFBI ([1]; 24 hours): −2.0 fold
- IC50 at 72 h [2]: 8.3 ppm
- IC50 at 72 h [3]: 6.9 ppm
- Percentage of cells staining positive for pHistone H3 ([4]; 5 ppm): 1.45%
- Percentage of cells staining positive for pHistone H3 ([4]; 7.5 ppm): 0.9%
- viability at 10 ppm ([5]; HCT-116, 1 h): 75%
- viability at 20 ppm ([5]; HCT-116, 1 h): 68%
- viability at 10 ppm ([5]; HCT-116, 4 h): 18%
- viability at 20 ppm ([5]; HCT-116, 4 h): 0%

Structure (SMILES): CC1=CC(O/C=C2/C(=O)c3c(c4cc(-c5cccs5)ccc4n3C)C2C)OC1=O (stereo not shown) [ST-357, (2E)-1,4-dimethyl-2-((4-methyl-5-oxo-2,5-dihydrofuran-2-yloxy)methylene)-7-(thiophen-2-yl)-1,2-dihydrocyclopenta[b]indol-3(4H)-one]
- Percentage of cells staining positive for pHistone H3 ([4]; 5 ppm): 0.7%
- Percentage of cells staining positive for pHistone H3 ([4]; 7.5 ppm): 0.3%
- viability at 10 ppm ([5]; HCT-116, 1 h): 75%
- viability at 20 ppm ([5]; HCT-116, 1 h): 63%
- viability at 20 ppm ([5]; HCT-116, 4 h): 50%
- viability at 20 ppm ([5]; HCT-116, 8 h): 10%

Structure (SMILES): CC1=CC(O/C=C2/C(=O)c3c(c4cc(-c5scc6c5OCCO6)ccc4n3C)C2C)OC1=O (stereo not shown) [ST-362, (2E)-2-[(2,5-dihydro-4-methyl-5-oxofuran-2-yloxy)methylene]-1,2-dihydro-7-(2,3-dihydrothieno[3,4-b][1,4]dioxin-7-yl)-1,4-dimethyl-cyclopenta[b]indole-3-(4H)-one]
- Fold-Change ABCB1 ([1]; 6 hours): 3.6 fold
- Fold-Change AHSA1 ([1]; 6 hours): 2.1 fold
- Fold-Change ALDH1B1 ([1]; 6 hours): −2.1 fold
- Fold-Change ATF3 ([1]; 6 hours): 2.2 fold
- Fold-Change BAG3 ([1]; 6 hours): 4.6 fold
- Fold-Change BIRC3 ([1]; 6 hours): −2.4 fold
- Fold-Change CCL3L3 ([1]; 6 hours): 3.7 fold
- Fold-Change CCNB1 ([1]; 6 hours): −2.1 fold
- Fold-Change CCNG2 ([1]; 6 hours): 3.6 fold
- Fold-Change CLDN12 ([1]; 6 hours): 2.3 fold
- Fold-Change CYP24A1 ([1]; 6 hours): −2.6 fold
- Fold-Change DDIT3 ([1]; 6 hours): 6.2 fold
- Fold-Change FOXD1 ([1]; 6 hours): −2.4 fold
- Fold-Change FOXO4 ([1]; 6 hours): 2.5 fold
- Fold-Change GDF15 ([1]; 6 hours): 7.6 fold
- Fold-Change GEM ([1]; 6 hours): 2.4 fold
- Fold-Change HSPA1A ([1]; 6 hours): 7.3 fold
- Fold-Change HSPA1B ([1]; 6 hours): 9.2 fold
- Fold-Change HSPA1L ([1]; 6 hours): 2.7 fold
- Fold-Change HSPA6 ([1]; 6 hours): 79.8 fold
- Fold-Change HSPA7 ([1]; 6 hours): 23.3 fold
- Fold-Change HSPB8 ([1]; 6 hours): 2.7 fold
- Fold-Change PGF ([1]; 6 hours): 6.2 fold
- Fold-Change PPP1R15A ([1]; 6 hours): 2.7 fold
- Fold-Change PTGS2 ([1]; 6 hours): 3.4 fold
- Fold-Change SLC3A2 ([1]; 6 hours): 3.6 fold
- Fold-Change SLC7A11 ([1]; 6 hours): 2.2 fold
- Fold-Change SLC31A2 ([1]; 6 hours): 2.3 fold
- Fold-Change SLC44A2 ([1]; 6 hours): 2.5 fold
- Fold-Change TGFBR2 ([1]; 6 hours): −2.0 fold
- Fold-Change ABCA13 ([1]; 24 hours): −2.8 fold
- Fold-Change AMPH ([1]; 24 hours): −3.5 fold
- Fold-Change BIRC3 ([1]; 24 hours): 2.6 fold
- Fold-Change CCL20 ([1]; 24 hours): 6.6 fold
- Fold-Change CCNB1 ([1]; 24 hours): −2.2 fold
- Fold-Change CCNG2 ([1]; 24 hours): 2.7 fold
- Fold-Change CTGF ([1]; 24 hours): 2.4 fold
- Fold-Change CYR61 ([1]; 24 hours): 3.6 fold
- Fold-Change DHRS2 ([1]; 24 hours): −2.5 fold
- Fold-Change DUSP5 ([1]; 24 hours): 3.9 fold
- Fold-Change E2F2 ([1]; 24 hours): −3.3 fold
- Fold-Change EGR1 ([1]; 24 hours): 2.2 fold
- Fold-Change ESM1 ([1]; 24 hours): 6.9 fold
- Fold-Change GDF15 ([1]; 24 hours): 4.2 fold
- Fold-Change HSPA5 ([1]; 24 hours): −2.8 fold
- Fold-Change ITGA2 ([1]; 24 hours): 3.4 fold
- Fold-Change KIF20A ([1]; 24 hours): −4.7 fold
- Fold-Change LAMA1 ([1]; 24 hours): 3.0 fold
- Fold-Change RN7SK ([1]; 24 hours): 16.8 fold
- Fold-Change SCG5 ([1]; 24 hours): 3.0 fold
- Fold-Change SLC7A11 ([1]; 24 hours): 3.6 fold
- Fold-Change SNORD3A ([1]; 24 hours): 4.1 fold
- Fold-Change SNORD3C ([1]; 24 hours): 4.0 fold
- Fold-Change SNORD3D ([1]; 24 hours): 4.8 fold
- Fold-Change SPP1 ([1]; 24 hours): 3.9 fold
- Fold-Change TGFBI ([1]; 24 hours): −3.4 fold
- IC50 at 72 h [2]: 5.9 ppm
- IC50 at 72 h [3]: 6.7 ppm
